Laboratory results published in patent publication US20070031493A1, “Pharmaceutical compositions” (priority 1996, published 2007).

Assays:
Type in all cases: physicochemical
[1] = Drug release from non-eroding high molecular weight xanthane matrix tablet, USP II apparatus; conditions: non-eroding matrix of xanthane (195 mg), 5 mg drug; pH 6.8, +37° C., paddle 75 rpm; FIG. 2
Procedure: (§1) In the following Examples 1 to 3, drug release from various types of tablets was determined in pH 6.8, +37° C., by use of an USP II apparatus at a paddle stirring rate of 75 rpm. All tablet formulations were manufactured by conventional techniques and, for each example, in an identical manner except for the drug constituent.

[2] = Drug release from eroding paraffin matrix tablet and immediate release hard gelatin capsule, USP II apparatus; conditions: 20 mg drug, pH 6.8, +37° C., paddle 75 rpm, FIG. 3
Procedure: as §1

[3] = Drug release and tablet erosion, eroding polyethyleneoxide (PEO) matrix tablet, USP II apparatus; conditions: eroding matrix of PEO 8,000,000, 10 mg drug; pH 6.8, +37° C., paddle 75 rpm; FIG. 1
Procedure: as §1, with “constituent. […] Tablet erosion was determined by weighing after removal of the tablets from the dissolution apparatus and drying to constant weight.” for “constituent.”

[4] = Transport over a diffusion controlling polymeric membrane, two-compartment cell; conditions: pH 6.8, +37° C., steady state, FIG. 4
Procedure: The release rate was studied at different initial concentrations of the active drug. The solutions (pH 6.8) in the chambers were well stirred and thermostated at +37° C. From the cumulative amount released versus time, the release rates (amount released/time) were determined as the slopes of the linear parts of the curves obtained at steady state. No accumulation in the membrane was found of any of the drugs. The results are presented in FIG. 4 as the release rates versus the concentrations used in the experiments.

Water solubility = assay: Water solubility

SMILES	drug release from sustained release tablet (comparison) [1]	drug release from sustained release tablet (comparison) [2]	drug release compared with tablet erosion [3]	drug release from sustained release tablet (comparison) [3]	release rate over membrane versus concentration in donor chamber ([4]; different initial concentrations)	release rate over membrane (comparison) [4]	water solubility (Water solubility)	solubility (Water solubility; water)
CC(C)n1c(/C=C/[C@@H](O)C[C@@H](O)CC(=O)O)c(-c2ccc(F)cc2)c2ccccc21 (relative stereo) [fluvastatin, R*,S*-(E)-(±)-7-[3-(4-fluorophenyl)-1-(1-methyl-ethyl)-1H-indol-2-yl]-3,5-dihydroxy-6-heptenoic acid]	slower than the release of both diclofenac and methylparaben	slower than the release of diclofenac	almost identical	slower than the release of methylparaben	independent of the concentration of fluvastatin in the donor compartment	much slower compared to diclofenac		
CC(C)n1c(/C=C/C(O)CC(O)CC(=O)O)c(-c2ccc(F)cc2)c2ccccc21 (stereo not drawn) [fluvastatin sodium]							> 50 mg/mL	> 50 mg/mL
COC(=O)c1ccc(O)cc1 [methylparaben, methyl p-hydroxybenzoate]			faster than the tablet erosion					
